# Assay results: patent US9551722B2, “Amyloid binding agents” (The Regents of the University of California, priority 2009, dated 2017)
# Assays:
# [1] = target: T1, pre-aggregated Aβ(1-42) peptide (Homo sapiens, UniProt P05067); assay: Apparent binding constant (Kd) by double reciprocal fluorescence plot; details: compound 10, 5, 2.5, 1.25 μM; 5.0 μM pre-aggregated Aβ(1-42); PBS pH 7.4
# T1 construct: preaggregated Aβ(1-42) peptides
# Procedure: We also measured the apparent binding constants (Kd) of the compounds (in concentrations of 10, 5, 2.5 and 1.25 μM) to 5.0 μM pre-aggregated Aβ(1-42) peptide. The Kd can be measured from the double reciprocal of the fluorescent maximum and the concentration of the compound. See H. LeVine III, Protein Sci. 1993, 2:404-410. […] [22,] See LeVine, Id.; Lockhart, L. Ye, D. B. Judd, A. T. Merritt, P. N. Lowe, J. L. Morgenstern, G. Z. Hong, A. D. Gee, J. Brown, J. Biol. Chem. 2005, 280:7677-7684; M. Biancalana, K. Makabe, A. Koide, S. Koide, J. Mol. Biol. 2008, 383:205-213; M. Biancalana, K. Makabe, A. Koide, S. Koide, J. Mol. Biol. 2009, 385:1052-1063. The Kd corresponds to the −1/(x-intercept) of the linear regression.
# Pre-aggregated Aβ(1-42) (5 μM final concentration) was mixed with various concentrations of compounds described herein (10, 5, 2.5, 1.25 μM) in PBS buffer (pH 7.4) and their fluorescence was measured. The negative inverse of the x-intercept of the linear regression, that was drawn between the double reciprocal of the fluorescence intensity maximum and concentration of the compound, represents the compound binding constant (Kd) to Aβ(1-42).
# In order to quantify the dissociation constants (Kd's) for the binding of fluorescent compounds with aggregated β-amyloid peptides, we used the method described by LeVine (see H. LeVine III, Protein Sci. 1993, 2, 404-410). This method is similar to the method described by Benesi-Hildebran (see C. Yang, L. Liu, T. W. Mu, Q. X. Guo, Anal. Sci. 2000, 16, 537-539). Here, the fluorescence of the compound was measured with and without the addition of the aggregated peptides in solution. The relative fluorescence enhancement of the compound upon binding to aggregated β-amyloid peptides was determined by taking the difference between F (fluorescence after the addition of aggregated peptides) and F (fluorescence before the addition of aggregated peptides).
# In order to estimate the binding constant (Kd) for the compound-Aβ complexes from the fluorescence studies, we made the following assumptions: • 1. All compounds are completely in solution and free of any significant competing binding process such as self-aggregation. • 2. The concentration of unbound compounds can be approximated as close to the total concentration of the compounds. • 3. The binding sites in the aggregated Aβ peptides are not completely occupied at the concentration of Aβ-binding compounds used for the fluorescence studies (i.e., the experiments are carried out under non-saturated binding conditions).
# FIG. 2 and FIG. 6 provide double reciprocal plots of the measured fluorescence versus total concentration of compound [GO]. Assuming that [G] can be approximated as close to [GO] (assumption 2), we can obtain estimates for the Kd's of the compound-Aβ complexes from the x-intercept of the linear fits of the data for each compound.
# [2] = target: T2, interaction of the aggregated Aβ peptide with a monoclonal anti-Aβ IgG (Homo sapiens, UniProt P05067); assay: Semi-quantitative ELISA: inhibition of IgG-Aβ fibril interactions; type: binding; details: anti-Aβ IgG clone 6E10
# T2 construct: Aggregated Aβ peptides were generated from synthetic Aβ(1-42) peptides
# Procedure: The association of the synthesized compounds with aggregated Aβ peptides was tested using a semi-quantitative ELISA based assay developed by Yang and co-workers. See P. Inbar, J. Yang, Bioorg. Med. Chem. Lett. 2006, 16:1076-1079; P. Inbar, C. Q. Li, S. A. Takayama, M. R. Bautista, J. Yang, ChemBioChem 2006, 7:1563-1566; P. Inbar, M. R. Bautista, S. A. Takayama, J. Yang, Anal. Chem. 2008, 80:3502-3506. The assay is based on screening for molecules that inhibit the interaction of the aggregated Aβ peptide with a monoclonal anti-Aβ IgG raised against residues 1-17 of Aβ. Table 4 provides the concentrations of the compounds corresponding to 50% inhibition (IC50) of the IgG-Aβ interactions as well as the maximal percentage of the IgG's inhibited from binding to the fibrils. […] The maximum inhibition, a measure of the extent of surface coating of the aggregated peptide by the compounds, was determined to be between 40-98% (Table 4). See P. Inbar, J. Yang, Bioorg. Med. Chem. Lett. 2006, 16:1076-1079; P. Inbar, C. Q. Li, S. A. Takayama, M. R. Bautista, J. Yang, ChemBioChem 2006, 7:1563-1566; P. Inbar, M. R. Bautista, S. A. Takayama, J. Yang, Anal. Chem. 2008, 80:3502-3506. […] Specifically, while the maximum inhibition is between 81-98% for the phenyl compounds, it decreases to 58% for the longer naphthalene compound 11 and to 40% for the more conjugated stilbene 19.
# Aggregated Aβ peptides were generated from synthetic Aβ(1-42) peptides by dissolving 30 μg of peptide in 90 μL of nanopure water (pH 5-6) and incubating at 37° C. for ≧72 h without agitation. Each well of a 96-well plate (well volume 0.4 mL; clear, flat bottom polypropylene) was coated for 3 h at 25° C. with 50 μL of 1.3 μM solution of Aβ peptides in phosphate-buffered saline (PBS, 10 mM NaH2PO4/Na2HPO4, 138 mM NaCl, 2.7 mM KCl, pH 7.4). After removal of the excess sample, 50 μL solutions of compounds in PBS buffer (various concentrations were obtained by diluting a stock solution with PBS buffer) were incubated in the wells for 12 h. […] The excess solutions were then removed and all wells were blocked for 30 min by adding 300 μL of a 1% (w/v) solution of bovine serum albumin in PBS buffer (BSA/PBS). On occasion, an additional blocking step was performed prior to incubation with solutions of small molecules. The blocking solution was discarded and the wells were washed once with 300 μL of PBS buffer. Wells were incubated for 1 h with 50 μL of a 1.1 nM solution (in 1% BSA/PBS, dilution 1:6000) of anti-Aβ IgG (clone 6E10, monoclonal, mouse), followed by removal of the solution. The wells were washed twice with 300 μL of PBS buffer and incubated for 60 min with 50 μL of the secondary IgG (anti-mouse IgG H+L, polyclonal, rabbit) conjugated with alkaline phosphatase (6.8 nM in 1% BSA/PBS, dilution 1:1000). The solution was discarded, and the wells were washed twice with 300 μL PBS buffer. Bound secondary IgGs were detected by the addition of 50 μL of a p-nitrophenyl phosphate solution (2.7 mM, in 100 mM diethanol amine/0.5 mM magnesium chloride, pH 9.8). Absorbance intensities were determined at 405 nm using a UV-vis spectroscopic plate reader (Sprectramax 190, Molecular Devices, Sunnyvale, Calif.). Each run was performed five times and averaged. Error bars represent standard deviations. Graphs were plotted and fitted with the sigmoid curve fitting.
# [3] = Solubility in aqueous media (observation); type: physicochemical
# T2 sequence (P05067 672-713 limits assumed): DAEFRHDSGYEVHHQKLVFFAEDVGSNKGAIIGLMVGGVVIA
# T1 sequence (P05067 672-713 limits assumed): as above
structure (smiles),measurement,setting,value
"COCCOCCOCCOC(=O)/C(C#N)=C/c1ccc(/C=C/c2ccc(N(C)C)cc2)cc1 [Cmpd 19, (E)-2-(2-(2-methoxyethoxyl)ethoxy)ethyl-cyano-3-(4-(4(dimethylamino)styryl)phenyl)acrylate]",Kd,[1],1.4 µM
same,IC50,[2]; 50% inhibition of IgG-Aβ interactions,33.6 µM
same,Maximum % inhibition (ELISA),[2]; maximal percentage of IgG inhibited from binding to the fibrils,40%
same,Solubility in aqueous media,[3],poor solubility in aqueous media
